Measurements published in patent US20260174829A1, “METHODS OF REDUCING TYPE 2 CYTOKINE-MEDIATED INFLAMMATION USING NEUROMEDIN PEPTIDES” (Rutgers, The State University of New Jersey, priority 2018, published 2026).

These molecules were tested on NMBR expression by ILC2s (assay: NMBR expression by cultured lung ILC2s, flow cytometry). Conditions: ILC2s day 7 post-Nb, IL-2 and IL-7, overnight culture.
Type: cell-based, mouse
Description: FIG. 9. Basophils regulate NMBR expression. ILC2s were sort-purified from the lung of Nb-infected mice (day 7) and stimulated with survival cytokines (IL-7 and IL-2) and also with activated basophils, IL-4 or IL-33 overnight. NMBR expression was monitored by flow cytometric analysis post-culture. Data are presented as […] mean fluorescent intensity (GMFI). Statistical comparisons were done using a Student's t-test.
FIG. 14. Prostaglandin E2 upregulates expression of NMBR on lymphocytes. Lung ILC2s were sort-purified from the lungs of mice on day 7 post-Nb and cultured with a combination of survival cytokines (IL-2 and IL-7) and/or activating cytokines (IL-25 and IL-33). In addition, cultures were treated with NMB or prostaglandin E2 (PGE2) and the expression of NMBR was measured by flow cytometric analysis on day 4 post-culture. Statistical analysis was performed using a student's t-test. Negative NMBR staining as determined by an isotype control antibody is also shown (Isot).
NMBR expression by lung ILC2s was reduced when basophils are depleted following an Nb infection. To determine whether basophils directly mediate expression of NMBR or whether they operate through intermediate pathways, ILC2s were sort-purified from the lungs of Nb-infected mice (day 7) and cultured with the survival cytokines IL-2 and IL-7. Additionally, the ILC2s were cultured with activated basophils, IL-4, or IL-33 overnight. NMBR expression was subsequently monitored by flow cytometric analysis post-culture.
To better determine the mechanisms through which basophils regulate expression of NMBR on lymphocytes, ILC2s were cultured with a combination of survival and activating cytokines in the presence or absence of NMB or prostaglandin E2 (PGE2).

| Molecule | NMBR expression levels on ILC2s |
| --- | --- |
| IL-4: cytokine known to promote ILC2 activation (protein, UniProt P05112 25-153, looked up) Interleukin-4: HKCDITLQEIIKTLNSLTEQKTLCTELTVTDIFAASKNTTEKETFCRAATVLRQFYSHHEKDTRCLGATAQQFHRHKQLIRFLKRLDRNLWGLAGLNSCPVKEANQSTLENFLERLKTIMREKYSKCSS | no changes |
| IL-33: cytokine known to promote ILC2 activation (protein, UniProt O95760 1-270, looked up) Interleukin-33: MKPKMKYSTNKISTAKWKNTASKALCFKLGKSQQKAKEVCPMYFMKLRSGLMIKKEACYFRRETTKRPSLKTGRKHKRHLVLAACQQQSTVECFAFGISGVQKYTRALHDSSITGISPITEYLASLSTYNDQSITFALEDESYEIYVEDLKKDEKKDKVLLSYYESQHPSNESGDGVDGKMLMVTLSPTKDFWLHANNKEHSVELHKCEKPLPDQAFFVLHNMHSNCVSFECKTDPGVFIGVKDNHLALIKVDSSENLCTENILFKLSET | no changes |

Same assay, conditions: ILC2s day 7 post-Nb, survival and/or activating cytokines, day 4 post-culture

| Molecule | NMBR expression by ILC2s |
| --- | --- |
| CCCCC[C@H](O)/C=C/[C@H]1[C@H](O)CC(=O)[C@@H]1C/C=C\CCCC(=O)O [PGE2, prostaglandin E2, reference compound] | significantly upregulated |
| IL-33: cytokine known to promote ILC2 activation (protein, UniProt O95760 1-270, looked up) Interleukin-33: MKPKMKYSTNKISTAKWKNTASKALCFKLGKSQQKAKEVCPMYFMKLRSGLMIKKEACYFRRETTKRPSLKTGRKHKRHLVLAACQQQSTVECFAFGISGVQKYTRALHDSSITGISPITEYLASLSTYNDQSITFALEDESYEIYVEDLKKDEKKDKVLLSYYESQHPSNESGDGVDGKMLMVTLSPTKDFWLHANNKEHSVELHKCEKPLPDQAFFVLHNMHSNCVSFECKTDPGVFIGVKDNHLALIKVDSSENLCTENILFKLSET | failed to upregulate |
| IL-25: activating cytokine used in ILC2 cultures (protein, UniProt Q9H293 33-177, looked up) Interleukin-25: YSHWPSCCPSKGQDTSEELLRWSTVPVPPLEPARPNRHPESCRASEDGPLNSRAISPWRYELDRDLNRLPQDLYHARCLCPHCVSLQTGSHMDPRGNSELLYHNQTVFYRRPCHGEKGTHKGYCLERRLYRVSLACVCVRPRVMG | failed to upregulate |

The molecules below were run on TH2 cells (assay: Anti-CD3/anti-CD28 stimulated lymph node cells (day 7 post-Nb), IL-5/IL-13 ELISA). Conditions: LN cells day 7 post-Nb, anti-CD3 and anti-CD28, 48 hours.
Type: cell-based, mouse
Description: FIGS. 7A-7I. Nmb treatment is sufficient to suppress allergic airway inflammation. Mice challenged with papain were treated with PBS or Nmb (i.t.) and (A) Lung ILC2s, (B) IL-5+ and IL-13+ ILC2s, and (C) eosinophils were evaluated. […] Mesenteric lymph nodes (MLNs) were isolated on day 7 post-Nb and single cells suspensions were treated with anti-CD3 and anti-CD28 in the presence or absence of Nmb for 48 hours and (E), IL-5 and (F) IL-13 were quantified in cell-free supernatants by ELISA. (F-I), Modified versions of Nmb (see Table 2) were tested for their ability to alter IL-5 and IL-13 production from anti-CD3 and anti-CD28 MLN cells isolated on day 7 post-Nb. P values were determined by two-tailed Student's t-tests. Blue asterisks represent comparisons between media treated controls and native Nmb. Red asterisks represent comparisons between media treated controls and modified version of Nmb as described in Table 2. (*,p<0.05), (**,p<0.01), (***,p<0.001) or (F-I).
FIGS. 8A-8B. Mesenteric lymph nodes (MLNs) were isolated on day 7 post-Nb and single cells suspensions were treated with anti-CD3 and anti-CD28 in the presence or absence of native Nmb or modified versions of the peptide for 48 hours and (A), IL-5 and (B) IL-13 were quantified in cell-free supernatants by ELISA. P values were determined by two-tailed Student's t-tests. Blue asterisks represent comparisons between media treated controls and native Nmb. Red asterisks represent comparisons between media treated controls and modified version of Nmb as described in Table 2. (*,p<0.05), (**,p<0.01), (***,p<0.001).
At the time points evaluated post-Nb, the majority of the type 2 cytokines are ILC2-derived (14) and any effects Nmb is having on TH2 cell responses may be difficult to detect. To address this, lung-draining LNs were isolated on day 7 post-Nb and stimulated with anti-CD3 and -CD28 to activate T cells in both the presence of absence of recombinant Nmb. LN cells treated with anti-CD3 and -CD28 produced increased amounts of IL-5, and IL-13 (FIGS. 7D, 7E).
Thus, Nmb can be employed to reduce type 2 cytokine-mediated inflammation. Native Nmb is a 10-mer peptide (SEQ ID NO: 1) that operates via its ability to bind the Nmb receptor (15). This example describes the results of an alanine scan to systematically replace various residues of the Nmb with alanine (Table 2) and the resulting ability of the variant Nmb peptides to inhibit type 2 cytokine production by TH2 cells. Further, caps were added to the native form of Nmb (SEQ ID NO: 1) and its bioactivity monitored (FIG. 5A).

| Molecule | capacity to inhibit IL-13 production compared to native Nmb | capacity to inhibit IL-5 production compared to native Nmb |
| --- | --- | --- |
| Ac-GLLWATGHFM-amide (Ac-GLLWATGHFM-NH2) [J] | significantly greater capacity | – |
| H2N-ANLWATGHFM-amide (H-ANLWATGHFM-NH2) | significantly greater capacity | – |
| H2N-ATGHFM-amide (H-ATGHFM-NH2) [AI] | enhanced capacity | – |
| H2N-GALWATGHFM-amide (H-GALWATGHFM-NH2) [B] | significantly greater capacity | – |
| H2N-GLWATGHFM-amide (H-GLWATGHFM-NH2) [O] | – | reduced capacity |
| H2N-GNAWATGHFM-amide (H-GNAWATGHFM-NH2) [C] | significantly greater capacity | significantly reduced capacity |
| H2N-GNLAATGHFM-amide (H-GNLAATGHFM-NH2) | significantly greater capacity | – |
| H2N-GNLWATAHFM-amide (H-GNLWATAHFM-NH2) | significantly reduced capacity | significantly reduced capacity |
| H2N-GNLWATG-amide (H-GNLWATG-NH2) [AA] | enhanced capacity | significant enhanced capacity |
| H2N-GNLWATGFM-amide (H-GNLWATGFM-NH2) [U] | – | reduced capacity |
| H2N-GNLWATGH-amide (H-GNLWATGH-NH2) [X] | enhanced capacity | significant enhanced capacity |
| H2N-GNLWATGHAM-amide (H-GNLWATGHAM-NH2) | significantly reduced capacity | – |
| H2N-GNLWATGHF-amide (H-GNLWATGHF-NH2) | – | reduced capacity |
| H2N-GNLWATGHFA-amide (H-GNLWATGHFA-NH2) | significantly greater capacity | – |
| H2N-GNLWATGHFM-NHMe | significantly greater capacity | – |
| H2N-GNLWATGHM-amide (H-GNLWATGHM-NH2) [V] | reduced capacity | reduced capacity |
| H2N-GNLWATHFM-amide (H-GNLWATHFM-NH2) | enhanced capacity | – |
| H2N-GNLWTGHFM-amide (H-GNLWTGHFM-NH2) [R] | enhanced capacity | reduced capacity |
| H2N-GNWATGHFM-amide (H-GNWATGHFM-NH2) [P] | – | reduced capacity |
| H2N-LWATGH-amide (H-LWATGH-NH2) [AG] | enhanced capacity | significant enhanced capacity |
| H2N-LWATGHF-amide (H-LWATGHF-NH2) [AC] | enhanced capacity | – |
| H2N-LWATGHFM-amide (H-LWATGHFM-NH2) [Z] | enhanced capacity | – |
| H2N-NLWATGH-amide (H-NLWATGH-NH2) [AB] | enhanced capacity | – |
| H2N-NLWATGHF-amide (H-NLWATGHF-NH2) [Y] | enhanced capacity | significant enhanced capacity |
| H2N-NLWATGHFM-amide (H-NLWATGHFM-NH2) | – | reduced capacity |
| H2N-WATGHF-amide (H-WATGHF-NH2) [AH] | enhanced capacity | significant enhanced capacity |
| H2N-WATGHFM-amide (H-WATGHFM-NH2) [AD] | enhanced capacity | – |
| Methanesulfonyl-GNLWATGHFM-amide [K] | significantly greater capacity | significantly reduced capacity |
